In brackets after ≈: the same amount, converted by molar mass. Several values for one entry are separate records, joined by “and”; a condition that tells them apart may be missing. Equal values may be shown once.
Experiments:
[1] = Aqueous solubility of sodium beta-keto salt prodrug of Nabumetone (Example 13b); format: physicochemical
Protocol: 12.1 mg of the of ethyl-5-(6-methoxy-2-naphthyl)-beta-keto-pentanoate product prepared and purified as in Example 8 was mixed with 25 mL of a 0.5 M aqueous solution NaOH and homogenised on a vortex mixer. […] 15 minutes after preparation of the sample, the sample was transferred to an oil bath set at 37° C. with continuous gentle magnetic stirring, and kept there for 3.5 hours. Crystalline flakes remained in the sample at the end of the 3.5 hours heat-treatment, and the sample was thereafter centrifuged and the clear liquid above the sedimented crystals was analysed by HPLC as described above.
After storage around one hour at room temperature a fraction of the sample was then filtered twice through a 0.2 μm filter (Whatman, 0.2 μm PS) fitted to a syringe to give a clear solution. 200 μL of this filtered solution was transferred, in a tightly closed vessel, to an oil bath at 95° C. and kept at this temperature for about 5 hours to bring about quantitative decarboxylation of the labile, dissolved beta-keto carboxylic salt prodrug derivative of Nabumetone.
The heated sample was then mixed with 35 mL of mobile phase (see Example 1) whereby a few solid crystals (comprising Nabumetone) was seen to not dissolve. In order to assure a correct sampling for HPLC analysis, 5 mL of the 35 mL sample was filtered through a 0.2 μm filter, after the whole 35 mL sample had been pH adjusted to 4.21 by 300 μL 0.1 M HCl+100 μL 1 M HCl, to assure that the pH of the sample was close to the pH of the mobile phase itself (pH 4.30). The filtered solution was thereafter analysed by HPLC and found to contain 0.777 mg Nabumetone per liter. If recalculated to the corresponding concentration of nabumetone equivalents in the form of the beta-keto salt prodrug present in dissolved form in the filtered 200 μl sample that was subsequently heat-treated to form Nabumetone above, the obtained concentration corresponds to a Nabumetone concentration of 136.7 mg Nabumetone per liter in the clear aqueous solution, at room temperature, before the heat-treatment at 95° C.

[2] = Sustained release of Nabumetone from beta-keto sodium salt prodrug in phosphate buffer at blood pH and 37° C.; format: physicochemical; details: phosphate buffer pH about 7.4, 37° C.
Protocol: 20.91 mg of the product synthesised as described in Example 8 (however in this case not purified by the chromatographic step in Example 8) was mixed with 1 ml 0.5 M NaOH at room temperature, whereby a portion of the sample was dissolved. After 30 minutes the mixture was placed in an oven at 37° C., and 10 μl samples was taken at regular intervals, diluted with 1 ml mobile phase (as in Example 1), and analyzed by HPLC, using UV-detection at 240 nm. 3.0 hours after initiation of the saponification reaction, the precursor (retention time 4.6 min) could no longer be detected, and the precursor peak was replaced by a peak from the intermediary beta-keto salt prodrug (retention time 2.3 minutes). At this point in time, a solution of 9 ml H2O and 0.0762 g NaH2PO4 was added to the sample, in order to create a NaH2PO4/Na2HPO4 pH buffer by neutralization of the NaOH remaining in the sample. […] The sample was again placed in the oven at 37° C. and the decarboxylation of the beta-keto salt in solution, gradually giving the commercially available drug Nabumetone, was followed by HPLC by taking 100 μl samples at regular intervals and diluting them with 1 ml mobile phase (see Example 1 above) before injection on the HPLC. It can be seen from the data that Nabumetone was continuously released into the solution via the spontaneous, non-enzymatic decarboxylation of the dissolved prodrug sodium salt, over a period of more than 120 hours. The half-life of the prodrug was estimated to be about 70 hours in this medium and under the conditions used.

[3] = at 37° C.; Okimotoa et al., 1999; cited from earlier work

Compound	Solubility (mg/L, as Nabumetone equivalents) ([1]; clear aqueous solution (0.5 M NaOH) at room temperature, 0.2 μm filtered, before heat-treatment)	Area at retention time 2.3 minutes characteristic for detection of the beta-keto anion ([1]; clear liquid after 3.5 h at 37° C. in 0.5 M NaOH, 200 μL diluted with 5.0 ml mobile phase)	half-life of the prodrug (estimated) [2]	period over which Nabumetone was continuously released into the solution [2]	Nabumetone beta-keto salt prodrug (HPLC area @ retention time 2.3 min) ([2]; 3.25 h after initiation of saponification)	Nabumetone beta-keto salt prodrug (HPLC area @ retention time 2.3 min) ([2]; 5.1 h after initiation of saponification)	Nabumetone beta-keto salt prodrug (HPLC area @ retention time 2.3 min) ([2]; 21.45 h after initiation of saponification)	Nabumetone beta-keto salt prodrug (HPLC area @ retention time 2.3 min) ([2]; 24.25 h after initiation of saponification)	Nabumetone beta-keto salt prodrug (HPLC area @ retention time 2.3 min) ([2]; 28.15 h after initiation of saponification)	Nabumetone beta-keto salt prodrug (HPLC area @ retention time 2.3 min) ([2]; 45.4 h after initiation of saponification)	Nabumetone beta-keto salt prodrug (HPLC area @ retention time 2.3 min) ([2]; 50 h after initiation of saponification)	Nabumetone beta-keto salt prodrug (HPLC area @ retention time 2.3 min) ([2]; 78 h after initiation of saponification)	Nabumetone beta-keto salt prodrug (HPLC area @ retention time 2.3 min) ([2]; 117 h after initiation of saponification)	Nabumetone beta-keto salt prodrug (HPLC area @ retention time 2.3 min) ([2]; 194 h after initiation of saponification)	Solubility [3]
5-(6-methoxy-2-naphthyl)-beta-keto-pentanoate [Nabumetone beta-keto salt prodrug]	136.7 mg/L	36218 arbitrary units	about 70 hours	more than 120 hours	28341	27144	22542	24102 and 21914	19536	18202	18123	9528	9760	1827	–
C[C@]12CC[C@H]3[C@@H](CCC4=CC(=O)CC[C@@]43C)[C@@H]1CC[C@@H]2O [testosterone, (8R,9S,10R,13S,14S,17S)-17-hydroxy-10,13-dimethyl-1,2,6,7,8,9,11,12,14,15,16,17-dodecahydrocyclopenta[a]phenanthren-3-one]	–	–	–	–	–	–	–	–	–	–	–	–	–	–	39 µg/mL (≈ 135 µM)
